Source: patent publication US9199931B2, “Pyrrolidine derivatives” (UNIVERSITE CLAUDE BERNARD LYON I, priority 2012, dated 2015)
“Also recorded” adds a separate entry of the source.

What was measured:
[1] = system: glutamate levels in the striatum; conditions: ex vivo and in vivo preparations, refs [89-92]; cited from earlier work
[2] = system: extracellular glutamate (Glu) and aspartate (Asp) levels, striatum; experiment: in vivo intracerebral microdialysis: extracellular glutamate and aspartate levels in striatum; set-up: species or system rat (Wistar); conditions: for effect on extracellular Glu and Asp levels: 1 mmol/L by reverse microdialysis, striatum, anesthetized rats; for action on glutamate when the glutamate levels are high: rat brain, initial glutamate level high, notably greater than 10 μmol/L; for Effect on Glu end/or Asp: striatum of anesthetized rats, reverse microdialysis; for effect of co-administration of CNQX on the compound's effects: compound at 1 mmol/L co-administered with CNQX, Asp levels are increased
Source text: One of the widespread methodological approaches, both in academic laboratories and in industrial laboratories, and used for following the extracellular concentrations of glutamate (Glu) and of aspartate (Asp) before, during and after administration of pharmacological agents targeting their receptors is intracerebral microdialysis. This type of test was therefore used, in order to track the in vivo effects of the molecules according to the invention as compared with those of kainic acid, for which the synthesized molecules are structural analogues (substituted pyrrolidines).
Concentric microdialysis probes with a regenerated cellulose membrane (Spectra/Por hollow fiber; molecular cut off 6,000 Da, 225 μm in external diameter, a length of 3 mm, Spectrum Medical Industries, Los Angeles, Calif., USA) and tubings in molten silica (40 μm i.d×105 μm o.d., Polymicro Technology, Phoenix, Ariz., USA) were manufactured according to a design already published (Bert et al 1996, [26]). They were perfused with a flow rate of 1 μl/min with artificial cerebrospinal fluid or CSF (145.0 mM NaCl; […]; 1.0 mM MgCl2; 1.2 mM CaCl2; 0.45 mM NaH2PO4; 1.55 mM Na2HPO4; pH 7.4) by means of a Harvard pump (Model 22, South Natick, Mass., USA).
The in vivo microdialysis experiments were conducted on male rats of the Wistar strain with an average weight of about 300 g, (provider: Charles River, L'Arbresle, France) anesthetized with urethane (a dose of 1.4 g/kg via an i.p, route, provider: Sigma-Aldrich, St. Louis, Mo., USA). The probes were implanted dorso lateral striatum according to the following stereotaxic coordinates relatively to the bregma: antero-posteriority 0 mm, laterality […], depth […] under the cortical surface. The dialysates (samples) were collected from the beginning of the 4th hour after implantation of the probe. The samples were taken every 5 minutes in PCR tubes of 200 μl (Axygene, Union City, Calif., USA) and immediately frozen at −20° C. The samples were analyzed subsequently in order to determine the glutamate and aspartate contents. The pharmacological agents and the compounds according to the invention were administered in situ by reverse microdialysis by changing the perfusion at the inlet of the probe of the CSF without any pharmacological agent to the one containing the pharmacological agent(s) (Bert et al., 2002 [27]; Parrot et al 2003 [28]).
CE analyses were carried out with a P/ACE MDQ system (Beckman-Coulter, Fullerton, Calif., USA) equipped with an external detector LIF ZETALIF (Picometrics, Toulouse, France). Detection was achieved by fluorescence at a wavelength of 442 nm and generated with a He—Cd laser Omnichrome (Chino, Calif., USA). The emission intensity was collected at 490 nm. Before analysis, the samples were derived with naphthalene-2,3-dicarboxaldehyde with cyanide ions as a nucleophilic agent (pH 8.7; borate buffer 500 mM). The separations were conducted in a capillary of molten silica with an internal diameter of […] and an outer diameter of 375 μm with a length of 63 cm, with a useful length of 52 cm (Polymicro Technology) by using the procedure entirely detailed and validated earlier (Sauvinet et al., 2003 [29] Bert et al., 2002 (271). The Glu and Asp concentrations measured in striatum samples were above detection limits and were determined by interpolation by means of standard ranges.
All the reagents of the neurochemical study (except for the compound according to the invention) were purchased from Sigma-Aldrich (St Louis, Mo., USA). The mother-solutions of the synthesized molecules, of the kainate (KA, agonist of the KA receptors for glutamate), CNQX, 6-cyano-7-nitroquinoxaline-2,3(1H,4H)-dione (CAS-No. 115066-14-3, antagonist of KA receptors), from Glu and Asp were aliquoted to 1 or 0.1 mM and stored at −30° C. After their administration, the tested pharmacological agents were diluted in artificial CSF. […]

[3] = inflow through in vitro model of the choroidal epithelium (blood/cerebrospinal fluid barrier); format: in vitro ADME; conditions: rat; basolateral exposure at 150 μm for 60 minutes, 37° C.; read-out: penetration rate of the peripheral blood compartment towards the brain compartment
Description: A study was conducted with the BIP platform (Centre de Recherche en Neurosciences de Lyon, Lyons, France) for comparing the inflow of four compounds of interest through the cerebrospinal liquid/blood barrier. The study was carried out with an in vitro model of the choroidal epithelium restoring this interface. Choroidal cells were exposed by their basolateral pole to the compounds at a concentration of 150 μm for 60 minutes. The permeability of the cell monolayers to saccharose was analyzed in terms of these transfers, in order to detect possible toxicity of the compounds.
The epithelial cells are isolated from the choroidal plexus of a lateral ventricle taken on newly born rats as described earlier. The cells are sown on microporous supports (Transwell PC, pore size 0.4 μm, surface area […], diameter 6.5 mm), and cultivated in DMEM-F12 (1:1) supplemented with 10% FCS, 2 mM glutamine and 50 μg/ml gentamycin, as well as with various growth factors. The medium is renewed every two days until the day of experiment.
The transfer measurements were conducted under kinetic conditions (3 phases), with stirring (200 rpm), at 37° C., in a Ringer-Hepes buffer (RH). The volumes used in both compartments during the transfer are adjusted so as to minimize any hydrostatic pressure effect. The inserts are rinsed in RH before initiating the permeability study. For each compound, the transfer is carried out in parallel on three laminin inserts (without any cell) and three inserts with a cell monolayer.
Inflow measurements (from blood to the cerebrospinal fluid) were conducted during a kinetic study (20 min periods) for the four compounds of interest. Briefly, the compound of interest, diluted to 150 μm in RH is placed in the lower compartment of a multi-well cultivation plate, which reproduces the blood compartment. Transfer is initiated by placing a culture insert containing RH in the upper compartment, which corresponds to the cerebrospinal fluid. At regular intervals, an aliquot of the upper medium is taken and replaced with an equivalent volume of preheated RH at 37° C. […] The samples taken are analyzed by high performance liquid chromatography (HPLC) on an LC10 Shimadzu system chain (Duisburg, Germany), equipped with a spectrophotometric detector.
At the end of the transfer of the compounds of interest, [^14C]-saccharose is added as an aliquot into the upper compartment of the inserts. […] The media sampled in the wells and in the inserts at the end of the transfer of saccharose are analyzed by liquid scintillator counting in a β Canberra Packard TRI-GARB 1600TR counter. […]
The permeability coefficient of the cell monolayer Pe (in cm·min^−1) is calculated from the PS determined on laminin filters and filters with cells and by taking into account the exchange surface area. […]

[4] = biological target: CB1 (receptors of type 1 to endocannabinoids, CB-1) (Homo sapiens, UniProt P21554); experiment: in vitro specific binding inhibition (radioligand, 60 receptors); conditions: n = 2, read-out: % of inhibition of the control specific binding at 10 μM, CB1 towards its agonistic ligand
Description: In order to determine the target receptors of the compounds according to the invention, experiments of specific binding inhibition were conducted in vitro. Pharmacology in vitro: tests of specific bindings.
Sixty receptors were tested in the study according to standardized methods by using their specific radioligand as reported earlier.
The results may be expressed as a % of the specific control bond [(measured specific bond/control specific bond)×100] and as a % of inhibition of the specific control bond [100−(measured specific bond/control specific bond)×100] obtained in the presence of one of the two tested compounds (I.2 and I.4).
These experiments (Table 2 hereafter) have shown that the compounds I.2 and I.4 modify the specific binding of a control agonist of the receptors of type 1 to endocannabinoids (CB-1) (according to the test described in reference).

Sequence of CB1 (receptors of type 1 to endocannabinoids, CB-1) (P21554 whole entry): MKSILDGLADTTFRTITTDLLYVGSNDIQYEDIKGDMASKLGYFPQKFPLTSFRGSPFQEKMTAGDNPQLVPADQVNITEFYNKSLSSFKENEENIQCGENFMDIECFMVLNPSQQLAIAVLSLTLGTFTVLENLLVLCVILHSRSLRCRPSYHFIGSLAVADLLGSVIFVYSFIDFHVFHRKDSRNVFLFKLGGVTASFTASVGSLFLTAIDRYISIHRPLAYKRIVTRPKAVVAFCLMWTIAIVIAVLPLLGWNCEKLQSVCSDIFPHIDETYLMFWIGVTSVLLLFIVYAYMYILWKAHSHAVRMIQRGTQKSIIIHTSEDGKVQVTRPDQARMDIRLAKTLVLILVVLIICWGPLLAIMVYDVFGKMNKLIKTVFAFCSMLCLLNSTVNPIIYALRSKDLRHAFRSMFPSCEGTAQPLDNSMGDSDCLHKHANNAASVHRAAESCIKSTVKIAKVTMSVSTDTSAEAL

| Compound | effect on glutamate levels in the striatum [1] | effect on extracellular Glu and Asp levels [2] | action on glutamate when the glutamate levels are high [2] | Pharmacological potentiality for modulating the Glu system ([2]; summary of preliminary results) | Effect on Glu end/or Asp ([2]; summary of preliminary results) | Papp B→A at 60 min, 150 μm [3] [×10⁻⁶ cm/s] | effect of co-administration of CNQX on the compound's effects [2] | melting point [°C] | inhibition at 10 µM [4] [%] | Action through the KA receptors ([2]; summary of preliminary results, co-administration of CNQX (antagonist of KA receptors)) |
| --- | --- | --- | --- | --- | --- | --- | --- | --- | --- | --- |
| Cc1c(C(=O)c2cccc3ccccc23)c2cccc3c2n1[C@H](CN1CCOCC1)CO3 [WIN 55, 212-2] | induces a reduction in the glutamate levels |  |  |  |  |  |  |  |  |  |
| N[C@H](C(=O)O)[C@H]1CNC[C@H]1O [Compound I.1, (αS,3R,4S) α-amino-(4-hydroxy-pyrrolidin-3-yl)acetic acid] |  | effects similar to KA | inhibitory actions on the glutamate | Yes | Yes | ≤ 5 |  |  |  |  |
| Cc1c(C(=O)NN2CCCCC2)nn(-c2ccc(Cl)cc2Cl)c1-c1ccc(Cl)cc1 [rimonabant] | cause an increase or do not affect the extracellular glutamate levels |  |  |  |  |  |  |  |  |  |
| CNC(=O)[C@H](NC(C)=O)[C@@H]1CNC[C@@H]1O [Compound I.3, α-acetamido-(4-hydroxy-pyrrolidin-3-yl)-N-methylacetamide(αR,3S,4R)] |  | an effect similar to that of kainate | inhibitory actions on the glutamate | yes | yes | ≤ 5 | seems to partly attenuate its effects |  |  |  |
| CN[C@H](C(=O)O)[C@H]1CNC[C@H]1O (racemic) [Compound I.5, (3,4-cis).α-N-methylamino-(4-hydroxy-pyrrolidin-3-yl)acetic acid] |  |  |  |  |  |  |  | 192 |  |  |
| C=C(C)[C@H]1CN[C@H](C(=O)O)[C@H]1CC(=O)O [KA, kainate, reference compound] |  | affected |  |  |  |  |  |  |  |  |
| CNC(=O)[C@@H](N)[C@H]1CNC[C@H]1O [Compound I.4, .-amino-(4-hydroxy-pyrrolidin-3-yl)-N-methylacetamide(αS,3R,4S)] |  | a reduction in the Glu and Asp levels; also recorded: a reduction in the cerebral extracellular glutamate levels | inhibitory actions on the glutamate | yes | yes | ≤ 5 | seems to partly attenuate its effects |  | 29 |  |
| N[C@@H](C(=O)O)[C@@H]1CNC[C@@H]1O [Compound I.2, (αR,3S,4R) α-amino-(4-hydroxy-pyrrolidin-3-yl)acetic acid] |  | a reduction in the Glu and Asp levels; also recorded: a reduction in the cerebral extracellular glutamate levels | inhibitory actions on the glutamate | Yes | Yes | ≤ 5 | seems to partly attenuate its effects |  | 29 | yes for Asp |
